Experiments:
[1] = Chemical stability of compound in buffer at pH 7.4 assessed as compound remaining at 10 mg/ml after 2 days; format: physicochemical; settings: read-out: Stability
[2] = Intrinsic clearance in rat liver microsomes at 1 uM by HPLC/MS/MS analysis; format: ADME; settings: read-out: CLH
Liver microsome = assay: Metabolic stability in human liver microsomes assessed as GSH adduct formation at 40 uM for 1 hr by LC/MS analysis; format: ADME
[3] = molecular target: 5-hydroxytryptamine receptor 1A (Homo sapiens, UniProt P08908); assay: Antagonist activity at human 5-HT1A receptor expressed in CHO-K1 cells assessed as seretonin-induced cAMP level by HTRF assay; format: functional, cell-based
Mu-type opioid receptor [4] = molecular target: T1, Mu-type opioid receptor (Homo sapiens, UniProt P35372); assay: Agonist activity at human wild-type opioid-mu receptor expressed in CHO-K1 cells assessed as cAMP level by HTRF assay; format: functional, cell-based
[5] = molecular target: Muscarinic acetylcholine receptor M3 (Homo sapiens, UniProt P20309); assay: Antagonist activity at human wild-type M3 receptor expressed in CHO-K1 cells assessed as acetylcholine-induced calcium by FDSS assay; format: functional, cell-based
D(2) dopamine receptor = D(2) dopamine receptor (Homo sapiens, UniProt P14416); assay: Antagonist activity at human wild-type D2 receptor expressed in CHO-K1 cells assessed as dopamine-induced cAMP by HTRF assay; format: functional, cell-based
Cytochrome P450 1A2 = molecular target: T2, Cytochrome P450 1A2 (Homo sapiens, UniProt P05177); assay: Inhibition of human CYP1A2 by LC-MS analysis; format: ADME
T2 sequence (P05177 whole entry): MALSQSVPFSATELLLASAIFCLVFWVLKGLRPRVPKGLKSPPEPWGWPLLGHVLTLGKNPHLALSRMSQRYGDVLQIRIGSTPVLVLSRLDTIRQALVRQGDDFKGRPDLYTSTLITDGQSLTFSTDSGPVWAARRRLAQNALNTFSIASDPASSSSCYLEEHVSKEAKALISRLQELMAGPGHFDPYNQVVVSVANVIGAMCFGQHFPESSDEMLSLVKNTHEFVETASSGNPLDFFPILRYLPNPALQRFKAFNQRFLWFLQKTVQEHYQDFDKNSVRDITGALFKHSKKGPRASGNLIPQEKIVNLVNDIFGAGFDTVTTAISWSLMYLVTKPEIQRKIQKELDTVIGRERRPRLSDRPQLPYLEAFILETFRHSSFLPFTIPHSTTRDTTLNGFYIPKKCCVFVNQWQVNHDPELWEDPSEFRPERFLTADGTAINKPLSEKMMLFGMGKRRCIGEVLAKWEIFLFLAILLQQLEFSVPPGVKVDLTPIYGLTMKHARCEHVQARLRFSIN

Salmonella typhimurium = assay: Mutagenicity in Salmonella typhimurium by Ames test; format: toxicity, organism-based; settings: salmonella enterica subsp. enterica serovar typhimurium
human MDR1 = assay: Efflux ratio of permeability across basolateral to apical side over apical to basolateral side in MDCK cells expressing human MDR1 at 5 uM by LC-MS/MS method; format: ADME, cell-based, Canis lupus familiaris; settings: dog
D(1A) dopamine receptor = D(1A) dopamine receptor (Homo sapiens, UniProt P21728); assay: Agonist activity at human wild-type D1 receptor expressed in CHO cells assessed as cAMP level by HTRF assay; format: functional, cell-based
[6] = Chemical stability of compound in 0.1N HCL and 0.5% H2O2 assessed as compound remaining at 10 mg/ml after 1 day; format: physicochemical; settings: read-out: Stability
Mu-type opioid receptor [7] = molecular target: T1, Mu-type opioid receptor; assay: Antagonist activity at human wild-type opioid-mu receptor expressed in CHO-K1 cells assessed as DAMGO-induced cAMP by HTRF assay; format: functional, cell-based
[8] = molecular target: T3, Muscarinic acetylcholine receptor M2 (Homo sapiens, UniProt P08172); assay: Agonist activity at human wild-type M2 receptor expressed in CHO-K1 cells assessed as cAMP level by HTRF assay; format: functional, cell-based
T3 sequence (P08172 whole entry): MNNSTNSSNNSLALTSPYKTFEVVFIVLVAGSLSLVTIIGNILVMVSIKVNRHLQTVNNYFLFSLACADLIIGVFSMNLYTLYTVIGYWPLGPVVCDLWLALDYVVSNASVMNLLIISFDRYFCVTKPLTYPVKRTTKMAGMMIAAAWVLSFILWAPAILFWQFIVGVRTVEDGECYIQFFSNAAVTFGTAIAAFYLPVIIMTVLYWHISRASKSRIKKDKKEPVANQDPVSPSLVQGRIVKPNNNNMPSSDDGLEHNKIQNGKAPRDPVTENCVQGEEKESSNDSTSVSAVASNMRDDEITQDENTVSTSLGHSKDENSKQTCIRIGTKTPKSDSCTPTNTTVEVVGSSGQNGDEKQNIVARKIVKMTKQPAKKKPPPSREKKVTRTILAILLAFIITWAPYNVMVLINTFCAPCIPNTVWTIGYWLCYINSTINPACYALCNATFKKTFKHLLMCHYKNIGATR

[9] = molecular target: 5-hydroxytryptamine receptor 1B (Homo sapiens, UniProt P28222); assay: Agonist activity at human 5-HT1B receptor expressed in CHO-K1 cells assessed as cAMP level by HTRF assay; format: functional, cell-based
Cytochrome P450 2C9 = Cytochrome P450 2C9 (Homo sapiens, UniProt P11712); assay: Inhibition of human CYP2C9 by LC-MS analysis; format: ADME
[10] = Chemical stability of compound in DMSO assessed as compound remaining at 10 mg/ml after 24 days at room temperature under air; format: physicochemical; settings: read-out: Stability
[11] = Intrinsic clearance in human liver microsomes at 1 uM by HPLC/MS/MS analysis; format: ADME; settings: read-out: CLH
Cytochrome P450 3A4 = Cytochrome P450 3A4 (Homo sapiens, UniProt P08684); assay: Inhibition of human CYP3A4 by LC-MS analysis; format: ADME
Cytochrome P450 2D6 = Cytochrome P450 2D6 (Homo sapiens, UniProt P10635); assay: Inhibition of human CYP2D6 by LC-MS analysis; format: ADME
[12] = molecular target: T4, Delta-type opioid receptor (Homo sapiens, UniProt P41143); assay: Agonist activity at human wild-type opioid-delta 1 receptor expressed in CHO-K1 cells assessed as cAMP level by HTRF assay; format: functional, cell-based
[13] = molecular target: T4, Delta-type opioid receptor; assay: Antagonist activity at human wild-type opioid-delta 1 receptor expressed in CHO-K1 cells assessed as DPDPE-induced cAMP by HTRF assay; format: functional, cell-based

T1 sequence (P35372 whole entry): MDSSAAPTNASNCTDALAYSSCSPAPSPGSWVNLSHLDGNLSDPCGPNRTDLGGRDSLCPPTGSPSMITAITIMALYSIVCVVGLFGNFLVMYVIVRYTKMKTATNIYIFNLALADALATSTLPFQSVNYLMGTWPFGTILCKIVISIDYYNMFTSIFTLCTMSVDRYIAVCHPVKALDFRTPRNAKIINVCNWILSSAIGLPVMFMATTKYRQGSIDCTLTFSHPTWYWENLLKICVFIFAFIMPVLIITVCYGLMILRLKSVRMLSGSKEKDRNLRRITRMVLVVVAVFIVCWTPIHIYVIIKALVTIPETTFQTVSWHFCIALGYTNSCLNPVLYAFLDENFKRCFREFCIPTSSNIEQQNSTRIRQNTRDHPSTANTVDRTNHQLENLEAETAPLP
Sequence of 5-hydroxytryptamine receptor 1A (P08908 whole entry): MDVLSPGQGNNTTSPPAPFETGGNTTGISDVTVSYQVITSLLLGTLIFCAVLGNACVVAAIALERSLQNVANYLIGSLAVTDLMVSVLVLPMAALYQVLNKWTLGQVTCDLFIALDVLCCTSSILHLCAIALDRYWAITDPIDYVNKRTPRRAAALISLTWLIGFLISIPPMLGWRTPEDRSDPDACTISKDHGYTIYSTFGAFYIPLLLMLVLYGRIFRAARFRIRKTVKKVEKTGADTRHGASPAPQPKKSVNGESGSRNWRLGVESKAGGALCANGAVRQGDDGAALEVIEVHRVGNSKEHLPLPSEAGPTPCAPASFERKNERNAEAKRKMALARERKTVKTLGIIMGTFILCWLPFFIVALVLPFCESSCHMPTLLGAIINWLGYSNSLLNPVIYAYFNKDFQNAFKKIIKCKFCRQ
T4 sequence (P41143 whole entry): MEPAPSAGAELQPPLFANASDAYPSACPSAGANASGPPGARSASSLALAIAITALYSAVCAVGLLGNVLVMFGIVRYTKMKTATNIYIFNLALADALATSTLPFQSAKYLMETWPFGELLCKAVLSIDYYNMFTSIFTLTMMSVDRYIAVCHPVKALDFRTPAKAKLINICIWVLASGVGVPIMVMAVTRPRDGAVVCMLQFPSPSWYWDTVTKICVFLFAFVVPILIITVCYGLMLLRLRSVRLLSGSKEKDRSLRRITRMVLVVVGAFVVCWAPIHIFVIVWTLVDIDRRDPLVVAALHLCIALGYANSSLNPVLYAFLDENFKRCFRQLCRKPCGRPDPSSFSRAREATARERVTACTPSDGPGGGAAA
Sequence of 5-hydroxytryptamine receptor 1B (P28222 whole entry): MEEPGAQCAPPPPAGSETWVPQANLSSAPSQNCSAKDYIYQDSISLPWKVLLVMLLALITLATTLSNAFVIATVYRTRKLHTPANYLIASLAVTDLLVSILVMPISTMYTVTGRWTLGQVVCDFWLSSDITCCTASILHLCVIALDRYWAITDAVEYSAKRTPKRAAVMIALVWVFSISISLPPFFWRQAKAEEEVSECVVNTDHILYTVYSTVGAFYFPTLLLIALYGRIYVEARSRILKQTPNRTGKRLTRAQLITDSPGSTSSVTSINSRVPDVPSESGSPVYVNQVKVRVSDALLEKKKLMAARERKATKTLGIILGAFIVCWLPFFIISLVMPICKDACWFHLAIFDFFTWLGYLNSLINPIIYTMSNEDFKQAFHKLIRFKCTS
Sequence of Cytochrome P450 2D6 (P10635 whole entry): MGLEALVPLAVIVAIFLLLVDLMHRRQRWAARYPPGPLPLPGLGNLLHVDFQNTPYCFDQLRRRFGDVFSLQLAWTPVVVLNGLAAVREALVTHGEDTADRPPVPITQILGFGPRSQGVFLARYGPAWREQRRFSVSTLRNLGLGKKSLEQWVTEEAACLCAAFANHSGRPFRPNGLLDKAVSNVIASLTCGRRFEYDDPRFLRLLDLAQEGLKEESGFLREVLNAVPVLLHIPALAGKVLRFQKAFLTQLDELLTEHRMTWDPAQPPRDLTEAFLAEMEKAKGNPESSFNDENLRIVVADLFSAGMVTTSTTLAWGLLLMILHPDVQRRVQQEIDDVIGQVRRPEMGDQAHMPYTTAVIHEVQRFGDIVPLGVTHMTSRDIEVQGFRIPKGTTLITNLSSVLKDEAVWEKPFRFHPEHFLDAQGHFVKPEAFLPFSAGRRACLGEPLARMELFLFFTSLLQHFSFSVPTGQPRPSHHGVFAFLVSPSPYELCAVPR
Sequence of Muscarinic acetylcholine receptor M3 (P20309 whole entry): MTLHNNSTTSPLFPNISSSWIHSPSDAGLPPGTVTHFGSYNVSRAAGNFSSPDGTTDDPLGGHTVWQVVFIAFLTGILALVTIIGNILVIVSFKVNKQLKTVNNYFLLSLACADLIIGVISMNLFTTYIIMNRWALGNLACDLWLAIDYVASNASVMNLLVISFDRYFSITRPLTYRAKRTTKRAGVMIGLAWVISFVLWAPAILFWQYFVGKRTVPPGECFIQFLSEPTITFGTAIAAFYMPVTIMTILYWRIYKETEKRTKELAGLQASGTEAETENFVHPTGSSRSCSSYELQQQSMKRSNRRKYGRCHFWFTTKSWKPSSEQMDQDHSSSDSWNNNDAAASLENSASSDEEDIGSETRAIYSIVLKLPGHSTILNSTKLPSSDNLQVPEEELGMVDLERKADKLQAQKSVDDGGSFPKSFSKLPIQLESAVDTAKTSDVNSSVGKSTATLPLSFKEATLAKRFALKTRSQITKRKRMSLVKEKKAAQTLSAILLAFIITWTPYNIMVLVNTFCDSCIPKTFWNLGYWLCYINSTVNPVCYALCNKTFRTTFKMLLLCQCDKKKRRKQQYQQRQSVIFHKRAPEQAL
Sequence of Cytochrome P450 2C9 (P11712 whole entry): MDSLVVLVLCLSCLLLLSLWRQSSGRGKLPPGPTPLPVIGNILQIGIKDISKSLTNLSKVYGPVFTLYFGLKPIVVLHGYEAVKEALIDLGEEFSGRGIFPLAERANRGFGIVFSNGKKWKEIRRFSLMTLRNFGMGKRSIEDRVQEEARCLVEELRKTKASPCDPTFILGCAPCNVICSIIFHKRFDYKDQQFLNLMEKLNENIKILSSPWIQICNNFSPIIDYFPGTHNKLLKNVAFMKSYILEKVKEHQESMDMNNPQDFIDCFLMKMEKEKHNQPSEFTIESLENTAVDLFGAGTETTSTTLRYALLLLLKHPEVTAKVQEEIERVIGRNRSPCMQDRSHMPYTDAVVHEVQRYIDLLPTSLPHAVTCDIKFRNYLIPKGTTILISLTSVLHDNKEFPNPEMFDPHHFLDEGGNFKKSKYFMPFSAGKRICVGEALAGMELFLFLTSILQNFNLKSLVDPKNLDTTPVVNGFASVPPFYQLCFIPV
Sequence of D(2) dopamine receptor (P14416 whole entry): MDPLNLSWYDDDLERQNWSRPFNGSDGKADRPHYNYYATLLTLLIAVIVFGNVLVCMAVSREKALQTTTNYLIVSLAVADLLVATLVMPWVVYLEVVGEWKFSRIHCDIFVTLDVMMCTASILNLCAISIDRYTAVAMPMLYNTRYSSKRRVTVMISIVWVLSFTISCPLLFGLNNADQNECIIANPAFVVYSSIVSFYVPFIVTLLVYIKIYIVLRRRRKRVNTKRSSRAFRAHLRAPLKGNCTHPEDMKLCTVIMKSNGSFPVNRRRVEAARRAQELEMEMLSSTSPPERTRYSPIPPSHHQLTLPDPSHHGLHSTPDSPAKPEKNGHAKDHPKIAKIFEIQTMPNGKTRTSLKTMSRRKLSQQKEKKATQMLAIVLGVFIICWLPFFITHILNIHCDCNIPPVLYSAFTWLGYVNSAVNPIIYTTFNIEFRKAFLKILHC
Sequence of D(1A) dopamine receptor (P21728 whole entry): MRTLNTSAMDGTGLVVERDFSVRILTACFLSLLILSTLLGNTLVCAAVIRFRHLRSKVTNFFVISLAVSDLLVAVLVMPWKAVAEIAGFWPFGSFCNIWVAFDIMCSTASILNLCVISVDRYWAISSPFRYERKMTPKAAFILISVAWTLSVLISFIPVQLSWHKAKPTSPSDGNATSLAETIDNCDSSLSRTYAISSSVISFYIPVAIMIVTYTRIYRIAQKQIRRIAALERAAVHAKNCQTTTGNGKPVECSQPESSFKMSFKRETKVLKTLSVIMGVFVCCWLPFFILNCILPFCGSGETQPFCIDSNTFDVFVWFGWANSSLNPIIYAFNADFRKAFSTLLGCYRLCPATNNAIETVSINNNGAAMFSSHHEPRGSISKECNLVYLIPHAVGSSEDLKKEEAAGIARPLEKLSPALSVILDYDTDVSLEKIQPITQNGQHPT
Sequence of Cytochrome P450 3A4 (P08684 whole entry): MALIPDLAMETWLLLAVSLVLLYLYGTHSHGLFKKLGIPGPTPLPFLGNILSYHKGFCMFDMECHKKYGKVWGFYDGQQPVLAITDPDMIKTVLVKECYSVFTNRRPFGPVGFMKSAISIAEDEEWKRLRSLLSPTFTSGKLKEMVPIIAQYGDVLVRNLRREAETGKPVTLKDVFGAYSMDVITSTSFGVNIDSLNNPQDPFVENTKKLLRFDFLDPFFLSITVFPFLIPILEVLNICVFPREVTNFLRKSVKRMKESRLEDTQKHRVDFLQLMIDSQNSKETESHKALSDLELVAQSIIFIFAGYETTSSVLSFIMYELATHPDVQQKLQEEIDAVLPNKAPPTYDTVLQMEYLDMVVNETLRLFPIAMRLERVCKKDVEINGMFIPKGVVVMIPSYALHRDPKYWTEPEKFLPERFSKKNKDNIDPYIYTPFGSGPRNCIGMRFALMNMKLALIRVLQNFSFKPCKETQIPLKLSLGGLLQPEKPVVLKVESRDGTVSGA

remaining at 48 h, 10 mg/ml [1] [%]	microsomal CLint at 1 µM [2] [µL/min/mg]	Stability (Liver microsome)	IC50 [3] [µM]	EC50 (Mu-type opioid receptor [4]) [µM]	IC50 [5] [µM]	IC50 (D(2) dopamine receptor) [µM]	IC50 (Cytochrome P450 1A2) [µM]	EC50 (D(1A) dopamine receptor) [µM]	IC50 (Mu-type opioid receptor [7]) [µM]	EC50 [8] [µM]	EC50 [9] [µM]	IC50 (Cytochrome P450 2C9) [µM]	remaining at 576 h, 10 mg/ml [10] [%]	microsomal CLint at 1 µM [11] [µL/min/mg]	IC50 (Cytochrome P450 3A4) [µM]	IC50 (Cytochrome P450 2D6) [µM]	SMILES	other results
91	289	Stable	> 5.01	> 5.01	> 5.01	> 5.01	3.16	> 5.01	> 5.01	> 5.01	> 5.01	> 10	98	8.7	> 10	0.398	CB1C=Cc2cccc(OCC(O)CNC(C)C)c2N1 (centres undefined)	Activity (Salmonella typhimurium): Non-toxic; efflux ratio at 5 µM (human MDR1): 2.1; remaining at 24 h, 10 mg/ml [6]: 0%
96	> 346	Stable	2	> 5.01	> 5.01	> 5.01	> 10	> 5.01	> 5.01	> 5.01	> 5.01	> 10	97	11	> 10	2.51	CB1C=Cc2c(cccc2OCC(O)CN(C)C)N1 (centres undefined)	EC50 [12]: > 5.01 µM; IC50 [13]: > 5.01 µM
